Values joined by “and” are separate entries in the source; they are usually repeats but may differ in a detail not shown here. Equal values may be shown once.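 Briefly, cells in 96-well plates were exposed to five compound concentrations for 48 h, and endpoints were estimated by linear interpolation. GI50: concentration for 50% inhibition of growth. TGI: total growth inhibition.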
What follows are compounds tested on UO-31 renal (assay: inhibition of tumour cell growth, NCI panel, 48 h).
Work on `C[C@]12CCc3sc(NCCc4ccccc4)nc3C1=CC[C@@H]1[C@@H]2CC[C@]2(C)C(=O)CC[C@@H]12` yielded a GI50 of 4.03 µM and a TGI of 25.1 µM. With `COc1cccc(C2=C(c3c(C)n(C)c4ccccc34)C(=O)NC2=O)c1` the GI50 was 14 µM and the TGI was greater than 25 µM. Work on `CCN(Cc1ccc(F)cc1)c1ccc(CO)c(F)c1` yielded a GI50 of 8.67 µM and a TGI of 54.4 µM. `O=C(Cn1c(=O)c(-c2ccccc2)nc2ccccc21)Nc1ccc(F)cc1` gave a GI50 greater than 100 µM and a TGI greater than 100 µM. In the case of `CN(C)CCNC(=O)c1cc([N+](=O)[O-])cc2c1Oc1ccccc1O2`, the TGI is reported as 33.2 µM. `COc1cccc2c1C(=O)c1c(O)c3c(c(O)c1C2=O)CC(O)(C(O)CO)CC3OC1CC(N2CCOCC2)C(O)C(C)O1` (stereo unspecified) was tested, and the GI50 was 0.00398 µM and 0.0213 µM and the TGI was 0.0314 µM and 0.0652 µM. `O=C1C(N2CC2)=C(N2CC2)C(=O)C(N2CC2)=C1N1CC1` gave a GI50 of less than 0.0304 µM and a TGI of 0.606 µM. `O=C(O)C1OC1(c1cccc(Cl)c1)c1ccccc1Cl` (stereo unspecified) was tested, and the TGI was 58.5 µM. In the case of `CCCCC[C@H]1C/C=C2/C(=O)C=C[C@@H]2C/C=C\CCCC(=O)O[C@@H](CCCCC)C/C=C2/C(=O)C=C[C@@H]2C/C=C\CCCC(=O)O1`, the GI50 is reported as 0.394 µM and the TGI is reported as 0.75 µM. Compound `O=C(Nc1cccc(-n2cc(-c3ccncc3)c(-c3cc(O)cc(Cl)c3)n2)c1)Nc1ccc(Cl)c(C(F)(F)F)c1` has a GI50 of 2.1 µM and a TGI of 6.14 µM. In the case of `COC1/C=C/C(C)C(C(C)C(OC)C(C)CCC(=O)C(C)C(C/C=C/N(C)C=O)OC)OC(=O)/C=C/C=C(\C)CC(OC)CC2=CC(=O)O[C@H](C2)C(C)C(OC)CC(OC)/C=C/C(C)C(OC)C1` (stereo partly specified), the GI50 is reported as 0.0294 µM and the TGI is reported as 0.0943 µM and 0.0265 µM. For `CNCCCn1c2c(c3ccc([N+](=O)[O-])cc3c1=O)C(=O)c1cc(OC)cnc1-2`, the GI50 was 0.0341 µM and the TGI was 0.221 µM. `C#CC1(O)C(COP(=O)(O)OC(COCCCCCCCCCCCCCCCCCC)COP(=O)(O)OCC2OC(n3cc(F)c(=O)[nH]c3=O)CC2O)OC(n2ccc(N)nc2=O)C1O` (stereo unspecified) was tested, and the GI50 was < 0.0376 µM and 0.115 µM and the TGI was 1.15 µM and 4.26 µM. Work on `COc1cc2oc3cc(=O)cc4oc(-c5ccccc5)cc(c2c2c1CCC(c1ccccc1)O2)c43` (stereo unspecified) yielded a TGI greater than 100 µM. With `c1cc2n(n1)CCN2` the TGI was 9890 µM. `COc1cc(Nc2c(C#N)cnc3cc(OCCCN4CCN(C)CC4)c(OC)cc23)c(Cl)cc1Cl` showed a GI50 of 0.687 µM and a TGI of 7.75 µM. `O=CN/C=C/c1cccc(O)c1` showed a TGI greater than 83.2 µM. Compound `Nc1ccc2c(SCc3ccc([N+](=O)[O-])cc3)c3ccccc3nc2c1` has a TGI of 27.2 µM. For `COC1=CC(c2ccc[nH]2)=N/C1=C\c1[nH]c(C)c(C(=O)CCCCC(=O)NC(C)(C)C)c1C`, the GI50 was 1.95 µM and the TGI was 6.27 µM. Work on `O=c1ccn(C2CC(O)C(CO)O2)c(=O)[nH]1` (stereo unspecified) yielded a GI50 greater than 5000 µM and a TGI greater than 5000 µM. Compound `O=C(N/C(=C/c1ccc(Cl)cc1Cl)c1nc2ccccc2s1)c1ccccc1` has a TGI of 29.9 µM. In the case of `CCOC(=O)c1cc2c(n1Cc1cccc(OC)c1)-c1oncc1CCC2`, the GI50 is reported as 4.48 µM and the TGI is reported as greater than 100 µM. `COc1c(O)cc2oc(-c3ccc(O)cc3)cc(=O)c2c1O` showed a TGI greater than 100 µM. Compound `COc1cccc(-c2nn(-c3ccccc3)cc2-c2ccnc(NCCCNC(=O)Nc3ccc(Cl)c(Cl)c3)c2)c1` has a GI50 of 1.78 µM and a TGI of 5.65 µM. In the case of `c1csc(-c2cn3nc(-c4c[nH]c5ccccc45)sc3n2)c1`, the GI50 is reported as 1.71 µM and the TGI is reported as greater than 100 µM. `COc1cc2ccccc2oc1=O` gave a TGI greater than 100 µM. In the case of `N#CCCN(CCCN(CCCN(C(=O)Nc1ccccc1)c1ccccc1)C(=O)Nc1ccccc1)C(=O)Nc1ccccc1`, the TGI is reported as greater than 8.75 µM. With `COc1ccc(-c2nc(-c3ccccc3)c(-c3ccccc3)[nH]2)cc1OC1CCCC1` the GI50 was greater than 100 µM and the TGI was greater than 100 µM.

What follows are compounds tested on PC-3 prostate (assay: inhibition of tumour cell growth, NCI panel, 48 h).
For `C[C@]12CCc3sc(NCCc4ccccc4)nc3C1=CC[C@@H]1[C@@H]2CC[C@]2(C)C(=O)CC[C@@H]12`, the GI50 was 3.35 µM and the TGI was greater than 100 µM. In the case of `COc1cccc(C2=C(c3c(C)n(C)c4ccccc34)C(=O)NC2=O)c1`, the GI50 is reported as 16.3 µM and the TGI is reported as greater than 25 µM. Work on `CCN(Cc1ccc(F)cc1)c1ccc(CO)c(F)c1` yielded a GI50 of 21.6 µM and a TGI of 94.6 µM. In the case of `O=C(Cn1c(=O)c(-c2ccccc2)nc2ccccc21)Nc1ccc(F)cc1`, the GI50 is reported as 39.9 µM and the TGI is reported as greater than 100 µM. Work on `CN(C)CCNC(=O)c1cc([N+](=O)[O-])cc2c1Oc1ccccc1O2` yielded a TGI greater than 100 µM. `COc1cccc2c1C(=O)c1c(O)c3c(c(O)c1C2=O)CC(O)(C(O)CO)CC3OC1CC(N2CCOCC2)C(O)C(C)O1` (stereo unspecified) showed a TGI of 0.144 µM. In the case of `O=C1C(N2CC2)=C(N2CC2)C(=O)C(N2CC2)=C1N1CC1`, the GI50 is reported as 0.863 µM and the TGI is reported as 21.1 µM. With `O=C(O)C1OC1(c1cccc(Cl)c1)c1ccccc1Cl` (stereo unspecified) the TGI was 57.9 µM. For `CCCCC[C@H]1C/C=C2/C(=O)C=C[C@@H]2C/C=C\CCCC(=O)O[C@@H](CCCCC)C/C=C2/C(=O)C=C[C@@H]2C/C=C\CCCC(=O)O1`, the GI50 was 0.285 µM and the TGI was 0.806 µM. With `O=C(Nc1cccc(-n2cc(-c3ccncc3)c(-c3cc(O)cc(Cl)c3)n2)c1)Nc1ccc(Cl)c(C(F)(F)F)c1` the GI50 was 2.1 µM and the TGI was 6.43 µM. With `COC1/C=C/C(C)C(C(C)C(OC)C(C)CCC(=O)C(C)C(C/C=C/N(C)C=O)OC)OC(=O)/C=C/C=C(\C)CC(OC)CC2=CC(=O)O[C@H](C2)C(C)C(OC)CC(OC)/C=C/C(C)C(OC)C1` (stereo partly specified) the TGI was 0.0387 µM and 0.0417 µM. `CNCCCn1c2c(c3ccc([N+](=O)[O-])cc3c1=O)C(=O)c1cc(OC)cnc1-2` was tested, and the GI50 was 0.13 µM and the TGI was 1.88 µM. `C#CC1(O)C(COP(=O)(O)OC(COCCCCCCCCCCCCCCCCCC)COP(=O)(O)OCC2OC(n3cc(F)c(=O)[nH]c3=O)CC2O)OC(n2ccc(N)nc2=O)C1O` (stereo unspecified) was tested, and the GI50 was 0.947 µM and 0.417 µM and the TGI was 24.3 µM and 11.4 µM. With `COc1cc2oc3cc(=O)cc4oc(-c5ccccc5)cc(c2c2c1CCC(c1ccccc1)O2)c43` (stereo unspecified) the TGI was greater than 100 µM. Work on `c1cc2n(n1)CCN2` yielded a TGI greater than 10000 µM. `COc1cc(Nc2c(C#N)cnc3cc(OCCCN4CCN(C)CC4)c(OC)cc23)c(Cl)cc1Cl` gave a GI50 of 5.02 µM and a TGI of 16.7 µM. `O=CN/C=C/c1cccc(O)c1` was tested, and the TGI was greater than 100 µM. For `Nc1ccc2c(SCc3ccc([N+](=O)[O-])cc3)c3ccccc3nc2c1`, the TGI was 29.7 µM. For `COC1=CC(c2ccc[nH]2)=N/C1=C\c1[nH]c(C)c(C(=O)CCCCC(=O)NC(C)(C)C)c1C`, the GI50 was 1.21 µM and the TGI was 2.57 µM. In the case of `O=c1ccn(C2CC(O)C(CO)O2)c(=O)[nH]1` (stereo unspecified), the GI50 is reported as greater than 5000 µM and the TGI is reported as greater than 5000 µM. `O=C(N/C(=C/c1ccc(Cl)cc1Cl)c1nc2ccccc2s1)c1ccccc1` was tested, and the TGI was 38.9 µM. `CCOC(=O)c1cc2c(n1Cc1cccc(OC)c1)-c1oncc1CCC2` was tested, and the GI50 was 1.67 µM and the TGI was greater than 100 µM. `COc1c(O)cc2oc(-c3ccc(O)cc3)cc(=O)c2c1O` was tested, and the TGI was greater than 100 µM. With `COc1cccc(-c2nn(-c3ccccc3)cc2-c2ccnc(NCCCNC(=O)Nc3ccc(Cl)c(Cl)c3)c2)c1` the GI50 was 3.96 µM and the TGI was 22.4 µM. With `c1csc(-c2cn3nc(-c4c[nH]c5ccccc45)sc3n2)c1` the GI50 was 2.07 µM and the TGI was greater than 100 µM. With `COc1cc2ccccc2oc1=O` the TGI was greater than 100 µM. Work on `N#CCCN(CCCN(CCCN(C(=O)Nc1ccccc1)c1ccccc1)C(=O)Nc1ccccc1)C(=O)Nc1ccccc1` yielded a GI50 greater than 100 µM and a TGI greater than 100 µM. Work on `COc1ccc(-c2nc(-c3ccccc3)c(-c3ccccc3)[nH]2)cc1OC1CCCC1` yielded a GI50 greater than 100 µM and a TGI greater than 100 µM.

Each compound was assayed on TK-10 renal (assay: inhibition of tumour cell growth, NCI panel, 48 h).
Work on `C[C@]12CCc3sc(NCCc4ccccc4)nc3C1=CC[C@@H]1[C@@H]2CC[C@]2(C)C(=O)CC[C@@H]12` yielded a GI50 of 4.15 µM and a TGI greater than 100 µM. Work on `COc1cccc(C2=C(c3c(C)n(C)c4ccccc34)C(=O)NC2=O)c1` yielded a GI50 of 24.2 µM and a TGI greater than 25 µM. Work on `CCN(Cc1ccc(F)cc1)c1ccc(CO)c(F)c1` yielded a GI50 of 0.625 µM and a TGI of 3.07 µM. `O=C(Cn1c(=O)c(-c2ccccc2)nc2ccccc21)Nc1ccc(F)cc1` showed a GI50 of 85 µM and a TGI greater than 100 µM. `CN(C)CCNC(=O)c1cc([N+](=O)[O-])cc2c1Oc1ccccc1O2` gave a TGI greater than 100 µM. Compound `COc1cccc2c1C(=O)c1c(O)c3c(c(O)c1C2=O)CC(O)(C(O)CO)CC3OC1CC(N2CCOCC2)C(O)C(C)O1` (stereo unspecified) has a GI50 of 0.0233 µM. `O=C1C(N2CC2)=C(N2CC2)C(=O)C(N2CC2)=C1N1CC1` showed a GI50 of 2.59 µM and a TGI greater than 100 µM. `O=C(O)C1OC1(c1cccc(Cl)c1)c1ccccc1Cl` (stereo unspecified) gave a TGI greater than 100 µM. Work on `CCCCC[C@H]1C/C=C2/C(=O)C=C[C@@H]2C/C=C\CCCC(=O)O[C@@H](CCCCC)C/C=C2/C(=O)C=C[C@@H]2C/C=C\CCCC(=O)O1` yielded a GI50 of 0.582 µM and a TGI of 1.31 µM. `COC1/C=C/C(C)C(C(C)C(OC)C(C)CCC(=O)C(C)C(C/C=C/N(C)C=O)OC)OC(=O)/C=C/C=C(\C)CC(OC)CC2=CC(=O)O[C@H](C2)C(C)C(OC)CC(OC)/C=C/C(C)C(OC)C1` (stereo partly specified) gave a GI50 of 0.0174 µM and a TGI of 0.0729 µM. `CNCCCn1c2c(c3ccc([N+](=O)[O-])cc3c1=O)C(=O)c1cc(OC)cnc1-2` was tested, and the GI50 was 0.317 µM and the TGI was 1.5 µM. For `C#CC1(O)C(COP(=O)(O)OC(COCCCCCCCCCCCCCCCCCC)COP(=O)(O)OCC2OC(n3cc(F)c(=O)[nH]c3=O)CC2O)OC(n2ccc(N)nc2=O)C1O` (stereo unspecified), the TGI was 9.09 µM and 3.83 µM.
